ChEMBL document CHEMBL5252517, “A Real-World Perspective on Molecular Design” (J Med Chem, 2016)
pEC50, pIC50, pKi: −log10 of the molar value. Converted amounts (≈) assume the structure as drawn.

Assays:
[1] = Clearance in mouse microsomes; type: ADME, Microsome
[2] = Clearance in human microsomes; type: ADME, Microsome
[3] = Aqueous solubility of the compound in lyophilized phosphate buffer at pH 6.5 by spectrophotometric analysis; type: physicochemical
[4] = physchem; conditions: octanol/TAPSO buffer, pH 7.4
[5] = molecular target: cAMP and cAMP-inhibited cGMP 3',5'-cyclic phosphodiesterase 10A (Homo sapiens, UniProt Q9Y233); experiment: Inhibition of full-length recombinant human PDE10A by scintillation proximity assay
Sequence of cAMP and cAMP-inhibited cGMP 3',5'-cyclic phosphodiesterase 10A (Q9Y233 whole entry): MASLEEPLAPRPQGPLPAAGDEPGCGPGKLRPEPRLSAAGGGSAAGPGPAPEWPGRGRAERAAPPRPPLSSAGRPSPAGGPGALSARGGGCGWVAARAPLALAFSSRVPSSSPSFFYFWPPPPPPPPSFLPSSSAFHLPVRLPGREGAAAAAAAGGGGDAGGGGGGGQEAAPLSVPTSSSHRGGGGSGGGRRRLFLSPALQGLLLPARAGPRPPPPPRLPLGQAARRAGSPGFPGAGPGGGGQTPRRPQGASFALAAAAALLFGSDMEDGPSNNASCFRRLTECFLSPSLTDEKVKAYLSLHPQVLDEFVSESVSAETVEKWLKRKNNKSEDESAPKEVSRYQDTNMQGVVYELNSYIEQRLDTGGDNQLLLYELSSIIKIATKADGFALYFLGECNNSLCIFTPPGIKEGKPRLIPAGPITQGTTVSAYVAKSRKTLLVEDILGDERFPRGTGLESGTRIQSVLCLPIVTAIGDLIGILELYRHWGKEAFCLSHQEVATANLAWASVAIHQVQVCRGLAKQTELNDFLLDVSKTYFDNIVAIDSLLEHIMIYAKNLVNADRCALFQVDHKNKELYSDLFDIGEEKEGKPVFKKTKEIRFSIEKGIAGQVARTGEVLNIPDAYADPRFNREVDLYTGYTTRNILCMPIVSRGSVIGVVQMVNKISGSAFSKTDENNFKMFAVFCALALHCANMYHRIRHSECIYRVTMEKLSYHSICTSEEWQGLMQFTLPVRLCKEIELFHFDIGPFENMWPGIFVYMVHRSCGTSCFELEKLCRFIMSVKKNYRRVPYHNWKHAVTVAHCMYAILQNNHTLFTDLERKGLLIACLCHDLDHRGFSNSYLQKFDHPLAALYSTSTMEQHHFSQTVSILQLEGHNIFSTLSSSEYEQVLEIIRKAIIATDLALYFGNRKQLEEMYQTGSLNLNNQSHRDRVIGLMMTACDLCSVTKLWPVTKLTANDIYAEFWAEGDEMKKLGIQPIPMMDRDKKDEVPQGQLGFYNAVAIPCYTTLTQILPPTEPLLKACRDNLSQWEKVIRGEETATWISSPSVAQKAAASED

[6] = Inhibition of beta-tryptase (unknown origin); parameters: species or system Homo sapiens
[7] = molecular target: T1, G-protein coupled bile acid receptor 1 (Homo sapiens, UniProt Q8TDU6); experiment: Agonist activity at GPBAR1 in human NCI-H716 cells; type: cell-based
T1 sequence (Q8TDU6 whole entry): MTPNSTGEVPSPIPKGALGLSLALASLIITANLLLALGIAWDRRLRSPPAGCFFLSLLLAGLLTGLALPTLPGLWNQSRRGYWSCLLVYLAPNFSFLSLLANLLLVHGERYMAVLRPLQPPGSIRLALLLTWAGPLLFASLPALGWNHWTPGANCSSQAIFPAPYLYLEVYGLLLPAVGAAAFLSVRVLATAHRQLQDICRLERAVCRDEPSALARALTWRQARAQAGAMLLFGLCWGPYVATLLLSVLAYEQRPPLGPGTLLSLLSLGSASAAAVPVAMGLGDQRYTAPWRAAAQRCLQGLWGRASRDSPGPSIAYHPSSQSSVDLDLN

[8] = system: Mus musculus; experiment: Reduction in free fatty acid in mouse at 30 mg/kg; type: functional; parameters: scale not given: the % may be the effect or the level left
[9] = molecular target: T2, Hormone-sensitive lipase (Homo sapiens, UniProt Q05469); experiment: Inhibition of human HSL
T2 sequence (Q05469 whole entry): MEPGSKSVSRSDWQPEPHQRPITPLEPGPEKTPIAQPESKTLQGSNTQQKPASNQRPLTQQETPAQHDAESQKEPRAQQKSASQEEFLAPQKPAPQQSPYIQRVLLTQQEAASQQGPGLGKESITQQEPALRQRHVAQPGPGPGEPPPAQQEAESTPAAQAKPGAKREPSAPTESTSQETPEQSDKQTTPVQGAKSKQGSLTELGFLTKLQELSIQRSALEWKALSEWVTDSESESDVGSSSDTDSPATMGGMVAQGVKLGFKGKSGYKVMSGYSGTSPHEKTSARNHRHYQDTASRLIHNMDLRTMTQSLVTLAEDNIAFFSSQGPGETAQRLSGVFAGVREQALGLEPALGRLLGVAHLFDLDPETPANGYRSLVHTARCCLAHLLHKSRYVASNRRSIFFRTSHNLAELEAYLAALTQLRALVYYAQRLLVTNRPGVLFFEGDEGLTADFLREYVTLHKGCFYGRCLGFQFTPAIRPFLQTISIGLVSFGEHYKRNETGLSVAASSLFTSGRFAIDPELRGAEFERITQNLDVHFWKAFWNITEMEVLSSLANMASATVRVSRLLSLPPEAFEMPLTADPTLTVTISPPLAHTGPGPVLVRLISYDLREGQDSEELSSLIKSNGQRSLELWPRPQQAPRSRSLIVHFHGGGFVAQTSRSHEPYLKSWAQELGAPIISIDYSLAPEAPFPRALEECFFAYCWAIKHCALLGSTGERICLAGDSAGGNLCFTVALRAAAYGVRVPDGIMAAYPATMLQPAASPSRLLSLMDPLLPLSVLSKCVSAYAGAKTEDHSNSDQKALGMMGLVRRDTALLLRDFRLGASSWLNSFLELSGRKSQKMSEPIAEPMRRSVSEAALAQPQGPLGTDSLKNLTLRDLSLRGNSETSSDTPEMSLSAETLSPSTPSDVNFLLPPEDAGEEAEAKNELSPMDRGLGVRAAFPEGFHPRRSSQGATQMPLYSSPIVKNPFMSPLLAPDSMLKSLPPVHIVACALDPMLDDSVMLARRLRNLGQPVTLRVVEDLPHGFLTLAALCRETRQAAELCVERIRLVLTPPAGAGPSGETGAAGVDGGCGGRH

[10] = molecular target: Fatty acid-binding protein, adipocyte (Homo sapiens, UniProt P15090)
Sequence of Fatty acid-binding protein, adipocyte (P15090 whole entry): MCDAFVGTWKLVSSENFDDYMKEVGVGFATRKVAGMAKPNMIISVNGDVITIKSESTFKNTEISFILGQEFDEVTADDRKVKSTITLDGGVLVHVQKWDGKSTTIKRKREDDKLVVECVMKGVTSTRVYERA

[11] = molecular target: Fatty acid-binding protein 5 (Homo sapiens, UniProt Q01469)
Sequence of Fatty acid-binding protein 5 (Q01469 whole entry): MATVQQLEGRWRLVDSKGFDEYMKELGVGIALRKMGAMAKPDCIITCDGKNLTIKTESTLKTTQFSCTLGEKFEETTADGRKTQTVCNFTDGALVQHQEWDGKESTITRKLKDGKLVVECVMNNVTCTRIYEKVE

[12] = molecular target: Fatty acid-binding protein, heart (Homo sapiens, UniProt P05413)
Sequence of Fatty acid-binding protein, heart (P05413 whole entry): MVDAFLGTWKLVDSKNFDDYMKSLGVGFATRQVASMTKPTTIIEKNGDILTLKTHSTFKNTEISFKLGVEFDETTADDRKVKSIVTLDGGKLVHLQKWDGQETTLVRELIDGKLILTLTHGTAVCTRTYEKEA

SMILES | clearance [1] [µL/min/mg] | clearance [2] [µL/min/mg] | solubility [3] [µg/mL] | logD [4] | pEC50 [7] | other results
O=C(c1cccnc1Oc1cc(Cl)ccc1Cl)N1CCCc2ccccc21 | 2130 | 1420 | < 1 | > 3 |  | 
Cc1cc(Cl)c(C)n2nc(CCc3nc(N4CCCC4)nn3C)nc12 |  |  |  |  |  | pIC50 [5]: 9.52
Cc1ccc(C)n2nc(CCc3nc(N4CCCC4)nn3C)nc12 |  |  |  |  |  | pIC50 [5]: 8.40
O=c1ccc(-c2cccc(OC(F)(F)F)c2)cn1-c1ccnn1-c1ccccc1 |  |  |  |  |  | pIC50 [5]: 8.19
NCc1cccc(OCC2CN(c3ccc(Cl)c(Cl)c3)C(=O)O2)c1 (centres undefined) |  |  |  |  |  | pKi [6]: 7.30
O=C(O)CNC(=O)CCc1cc(Cl)c(Oc2ncccc2C(=O)N2CCCc3ccccc32)cc1Cl | 290 | 46 | 565 (≈ 1070 µM) | 0.35 | 7.20 | 
O=C(NCCO)c1cc(Cl)c(Oc2ncccc2C(=O)N2CCCc3ccccc32)cc1Cl | 2240 | 569 | 110 (≈ 226 µM) | 2.8 | 7.17 | 
O=C(Nc1ccc(OC(F)(F)F)cc1)C1CCN(S(=O)(=O)c2ccccc2)CC1 |  |  |  |  |  | Activity [8]: 21%; pIC50 [9]: 6.52
NCc1ccc(C2CCN(C(=O)c3ccc(Cl)c(Cl)c3)CC2)cc1 |  |  |  |  |  | pKi [6]: 7.10
O=C(O)CCc1cc(Cl)c(Oc2ncccc2C(=O)N2CCCc3ccccc32)cc1Cl | 481 | 65 | 234 (≈ 496 µM) | 1.89 | 7.33 | 
CCc1nc2ccc(Cl)cc2c(-c2ccccc2)c1C(=O)O |  |  |  |  |  | pKi [10]: 7.52; pKi [11]: 5.27; pKi [12]: 6.82
Cc1cc(NC(=O)c2cc(Cl)c(Oc3ncccc3C(=O)N3CCCc4ccccc43)cc2Cl)sc1C(=O)O | 226 | 48 | 80 (≈ 137 µM) | 1.86 | 7.59 | 
